The target of experiment [1] is T1, Angiotensin II receptor (AT-1) type-1 (Rattus norvegicus, UniProt P29089+P25095).
T1 sequence (P29089 whole entry): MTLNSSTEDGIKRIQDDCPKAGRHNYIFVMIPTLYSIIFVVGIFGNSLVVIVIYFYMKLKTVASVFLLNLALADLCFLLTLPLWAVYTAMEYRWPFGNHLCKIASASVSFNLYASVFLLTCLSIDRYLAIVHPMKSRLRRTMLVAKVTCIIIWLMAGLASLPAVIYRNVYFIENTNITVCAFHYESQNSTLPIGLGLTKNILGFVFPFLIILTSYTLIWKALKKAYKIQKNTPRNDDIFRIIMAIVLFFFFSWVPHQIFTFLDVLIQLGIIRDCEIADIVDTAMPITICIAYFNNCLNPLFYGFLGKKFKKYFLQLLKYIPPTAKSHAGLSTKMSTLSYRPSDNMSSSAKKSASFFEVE
T1 sequence (P25095 whole entry): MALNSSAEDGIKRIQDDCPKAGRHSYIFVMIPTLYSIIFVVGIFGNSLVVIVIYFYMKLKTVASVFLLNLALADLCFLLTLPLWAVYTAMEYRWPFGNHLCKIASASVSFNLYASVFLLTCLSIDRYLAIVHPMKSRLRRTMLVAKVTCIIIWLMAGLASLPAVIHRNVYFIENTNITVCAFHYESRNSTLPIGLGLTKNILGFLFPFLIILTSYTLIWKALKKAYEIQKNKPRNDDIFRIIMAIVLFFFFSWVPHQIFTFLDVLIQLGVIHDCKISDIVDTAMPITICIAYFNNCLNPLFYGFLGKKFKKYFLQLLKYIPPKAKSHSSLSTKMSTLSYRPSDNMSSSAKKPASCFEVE
Briefly: Binding affinity to Angiotensin II receptor, type 1 as displacement of 125I-Sar, Ile-AII from rat adrenal cortex membranes. The class given is cell membranes, Membrane. Background: In a radioligand displacement assay an active substance lowers the binding of a labelled ligand.

A short description of experiment [2]: Calcium channel blocking activity (CCB). The class given is functional.
Experiment [3] is described as follows: Compound was evaluated for inhibitory activity against PAF (platelet activating factor) induced platelet aggregation. Format: functional.
A further experiment relates to Rattus norvegicus. Description: Dose required to produce 30 […] decrease in blood pressure that lasted for >6 hr. The class given is functional.

Regarding `CCCCc1nc2cccnc2n1CCCCCCO/C(O)=C1\C(C(C)C)=NC(C)=C(C(=O)Nc2cccnc2)C1c1ccccc1Cl` (stereo unspecified), the IC50 (as a rule, the midpoint of a concentration-inhibition curve) in experiment [1] was 100 nM.

For `CCCCc1nc2cccnc2n1-c1ccc(CCO/C(O)=C2\C(C(C)C)=NC(C)=C(C(=O)Nc3cccnc3)C2c2ccccc2Cl)cc1` (stereo in doubt), the IC50 in experiment [1] is 600 nM; in experiment [2], more than 100000 nM; in experiment [3] it was 30 nM.

In experiment [1], `CCCCc1nc2cccnc2n1-c1ccc(CCO/C(O)=C2\C(C(C)C)=NC(C)=C(C(=O)Nc3cccnc3)C2c2ccccc2Cl)cc1` (single isomer, unassigned; (+)) came in with an IC50 of 5300 nM.

For `CCCCc1nc2cccnc2n1CCCCCO/C(O)=C1\C(C(C)C)=NC(C)=C(C(=O)Nc2cccnc2)C1c1ccccc1Cl` (stereo unspecified), the IC50 in experiment [1] was 200 nM.

`CCCCc1nc2cccnc2n1-c1ccc(CCO/C(O)=C2\C(C(C)C)=NC(C)=C(C(=O)Nc3cccnc3)C2c2ccccc2Cl)cc1` (stereo in doubt; 12) displayed an IC50 in experiment [1] of 140 nM.

For `CCCCc1nc2cccnc2n1-c1ccc(CCO/C(O)=C2\C(C(C)C)=NC(C)=C(C(=O)Nc3ccccn3)C2c2ccccc2Cl)cc1` (stereo unspecified), the half-maximal inhibitory concentration (IC50) in experiment [1] was 120 nM; in experiment [2] it was more than 100000 nM; in experiment [3] it was more than 100000 nM.

In the case of `CCCCc1nc2cccnc2n1-c1ccc(CCO/C(O)=C2\C(C)=NC(C)=C(C(=O)Nc3ccccn3)C2c2ccccc2Cl)cc1` (stereo unspecified), the half-maximal inhibitory concentration (IC50) in experiment [1] is 60 nM; in experiment [2], 360 nM; in experiment [3] it was more than 100000 nM.

The compound `CCCCc1nc2cccnc2n1CCCCCCCO/C(O)=C1\C(C(C)C)=NC(C)=C(C(=O)Nc2cccnc2)C1c1ccccc1Cl` (stereo unspecified) came in with an IC50 in experiment [1] of 2000 nM.

With `CCCCc1nc2cccnc2n1-c1ccc(CCO/C(O)=C2\C(C(C)C)=NC(C)=C(C(=O)Nc3cccnc3)C2c2ccccc2Cl)cc1` (single isomer, unassigned; (-)), the Dose with Rattus norvegicus worked out at 60 mg/kg. In experiment [1], the IC50 was determined as 130 nM.
